Blank lines part the entries; values can stand above or below the molecule they belong to. The source made the active and inactive calls. No cut-off for these calls is given here.
Key:
[1] = molecular target: T1, Protein arginine N-methyltransferase 3 (Homo sapiens, UniProt O60678); experiment: Inhibition of PRMT3 (unknown origin)
[2] = molecular target: T2, Protein arginine N-methyltransferase 8 (Homo sapiens, UniProt Q9NR22); experiment: Inhibition of PRMT8 (unknown origin)
[3] = molecular target: T3, Protein arginine N-methyltransferase 1 (Homo sapiens, UniProt Q99873); experiment: Inhibition of PRMT1 (unknown origin)
[4] = molecular target: T4, Histone-arginine methyltransferase CARM1 (Homo sapiens, UniProt Q86X55); experiment: Inhibition of PRMT4 (unknown origin)
T4 sequence (Q86X55 whole entry): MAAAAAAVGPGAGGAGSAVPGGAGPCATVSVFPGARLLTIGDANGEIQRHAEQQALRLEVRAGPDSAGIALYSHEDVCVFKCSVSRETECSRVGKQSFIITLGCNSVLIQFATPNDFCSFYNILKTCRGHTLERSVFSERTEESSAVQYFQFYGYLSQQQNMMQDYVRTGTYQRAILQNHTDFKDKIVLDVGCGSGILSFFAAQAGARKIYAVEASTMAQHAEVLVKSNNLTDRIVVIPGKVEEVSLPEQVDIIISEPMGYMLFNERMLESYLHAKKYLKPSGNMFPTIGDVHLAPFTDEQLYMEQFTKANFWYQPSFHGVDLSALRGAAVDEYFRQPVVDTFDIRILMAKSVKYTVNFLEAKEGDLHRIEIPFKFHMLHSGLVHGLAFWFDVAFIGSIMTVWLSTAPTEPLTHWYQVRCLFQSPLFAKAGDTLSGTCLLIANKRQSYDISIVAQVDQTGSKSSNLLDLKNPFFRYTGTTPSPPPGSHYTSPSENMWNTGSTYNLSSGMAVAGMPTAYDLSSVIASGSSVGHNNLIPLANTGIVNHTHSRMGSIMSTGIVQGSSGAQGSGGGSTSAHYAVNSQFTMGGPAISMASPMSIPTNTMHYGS

[5] = molecular target: T5, Protein arginine N-methyltransferase 7 (Homo sapiens, UniProt Q9NVM4); experiment: Inhibition of PRMT7 (unknown origin)
T5 sequence (Q9NVM4 whole entry): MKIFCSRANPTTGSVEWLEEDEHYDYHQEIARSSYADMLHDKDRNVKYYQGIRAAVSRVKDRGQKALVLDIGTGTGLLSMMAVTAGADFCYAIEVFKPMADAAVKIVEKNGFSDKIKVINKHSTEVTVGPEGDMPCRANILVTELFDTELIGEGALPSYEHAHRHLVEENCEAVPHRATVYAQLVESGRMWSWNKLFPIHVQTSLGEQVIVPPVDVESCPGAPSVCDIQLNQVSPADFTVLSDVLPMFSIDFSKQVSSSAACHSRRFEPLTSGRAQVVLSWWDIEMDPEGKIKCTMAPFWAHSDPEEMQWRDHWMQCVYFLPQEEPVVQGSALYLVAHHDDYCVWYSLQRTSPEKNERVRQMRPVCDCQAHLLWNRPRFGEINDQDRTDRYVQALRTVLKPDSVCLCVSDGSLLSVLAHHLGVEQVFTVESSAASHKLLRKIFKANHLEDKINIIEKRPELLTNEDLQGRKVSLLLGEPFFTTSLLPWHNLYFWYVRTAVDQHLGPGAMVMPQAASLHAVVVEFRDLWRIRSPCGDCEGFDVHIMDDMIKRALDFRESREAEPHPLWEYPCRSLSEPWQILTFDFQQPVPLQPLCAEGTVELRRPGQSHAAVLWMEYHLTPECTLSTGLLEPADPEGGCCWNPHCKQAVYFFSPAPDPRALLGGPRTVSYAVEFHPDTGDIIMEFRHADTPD

[6] = molecular target: T6, Protein arginine N-methyltransferase 6 (Homo sapiens, UniProt Q96LA8); experiment: Inhibition of PRMT6 (unknown origin)
[7] = molecular target: T1, Protein arginine N-methyltransferase 3; experiment: Inhibition of PRMT3 (unknown origin) incubated for 1 hr in presence of 3H-SAM by topcount plate reader analysis
[8] = molecular target: T5, Protein arginine N-methyltransferase 7; experiment: Inhibition of PRMT7 (unknown origin) incubated for 1 hr in presence of 3H-SAM by topcount plate reader analysis
[9] = molecular target: T4, Histone-arginine methyltransferase CARM1; experiment: Inhibition of PRMT4 (unknown origin) incubated for 1 hr in presence of 3H-SAM by topcount plate reader analysis
[10] = molecular target: PRMT5/MEP50 complex (Homo sapiens, UniProt O14744); experiment: Inhibition of PRMT5/MEP50 (unknown origin) incubated for 1 hr in presence of 3H-SAM by topcount plate reader analysis; assay type: protein-complex assay
[11] = molecular target: T3, Protein arginine N-methyltransferase 1; experiment: Inhibition of PRMT1 (unknown origin) incubated for 1 hr in presence of 3H-SAM by topcount plate reader analysis
[12] = molecular target: T2, Protein arginine N-methyltransferase 8; experiment: Inhibition of PRMT8 (unknown origin) incubated for 1 hr in presence of 3H-SAM by topcount plate reader analysis
[13] = molecular target: T6, Protein arginine N-methyltransferase 6; experiment: Inhibition of PRMT6 (unknown origin) incubated for 1 hr in presence of 3H-SAM by topcount plate reader analysis
[14] = molecular target: Protein arginine N-methyltransferase 5 (Homo sapiens, UniProt O14744); experiment: Inhibition of PRMT5 (unknown origin)
[15] = Toxicity in Balb/c mouse assessed as effect on body weight at 50 mg/kg, ip measured after 4 weeks; assay type: organism-based; details: in vivo, 672 h
[16] = Drug recovery in mouse plasma at 5 uM measured after 5 hrs by LC-MS/MS analysis; assay type: ADME, cell-free; details: read-out: Drug recovery
[17] = molecular target: T7, Histone-arginine methyltransferase CARM1 (Homo sapiens) (UniProt Q86X55); experiment: Inhibition of PRMT4 in human MDA-MB-231 cells assessed as inhibition of PABP1 methylation at 10 uM by Western blot analysis; assay type: cell-based
T7 sequence (whole entry): T4 sequence (Q86X55 whole entry)

[18] = Plasma protein binding in mouse at 5 uM measured after 5 hrs by LC-MS/MS analysis; assay type: ADME, cell-free; details: read-out: PPB (converted)
[19] = molecular target: T7, Histone-arginine methyltransferase CARM1 (Homo sapiens); experiment: Potency index, ratio of IC50 for TP-064 to test compound IC50 for inhibition of PRMT4 in human MDA-MB-231 cells assessed as decrease in BAF155 methylation level incubated for 48 hrs by Western blot analysis; assay type: cell-based
[20] = molecular target: T4, Histone-arginine methyltransferase CARM1; experiment: Inhibition of PRMT4 in human MDA-MB-231 cells assessed as decrease in BAF155 methylation level incubated for 48 hrs by Western blot analysis; assay type: cell-based
[21] = molecular target: T4, Histone-arginine methyltransferase CARM1; experiment: Inhibition of PRMT4 in human MDA-MB-231 cells assessed as decrease in PABP1 methylation level incubated for 48 hrs by Western blot analysis; assay type: cell-based
[22] = test system: 4T1.2; experiment: Antitumor activity against mouse 4T1.2 cells xenografted in Balb/c mouse assessed as inhibition of tumor growth at 50 mg/kg, ip measured after 4 weeks by caliper method; assay type: functional, organism-based
[23] = test system: 4T1.2; experiment: In vivo inhibition of PRMT4 in mouse 4T1.2 cells xenografted in Balb/c mouse assessed as decrease in BAF155 methylation level at 50 mg/kg, ip by immunoblot analysis; assay type: functional, organism-based
[24] = molecular target: T7, Histone-arginine methyltransferase CARM1 (Homo sapiens); experiment: Inhibition of PRMT4 in human MDA-MB-231 cells assessed as decrease in BAF155 methylation level incubated for 24 to 48 hrs by Western blot analysis; assay type: cell-based; details: dose 0.01-20 µM, time 24-48 hrs
[25] = Prodrug release in human MDA-MB-231 cells assessed as (2R,3R,4S,5S)-2-(6-amino-9H-purin-9-yl)-5-(((2-((3-bromobenzyl)amino)ethyl)thio)methyl)tetrahydrofuran-3,4-diol formation at 4.5 uM measured after 30 mins by LC-MS analysis; assay type: ADME, cell-based; details: mda-mb-231, 0.5 h
[26] = molecular target: T7, Histone-arginine methyltransferase CARM1 (Homo sapiens); experiment: Potency index, ratio of IC50 for EZM2302 to test compound IC50 for inhibition of PRMT4 in human MDA-MB-231 cells assessed as decrease in BAF155 methylation level incubated for 48 hrs by Western blot analysis; assay type: cell-based
[27] = molecular target: T4, Histone-arginine methyltransferase CARM1; experiment: Inhibition of PRMT4 in human MDA-MB-231 cells assessed as decrease in BAF155 methylation level incubated for 24 hrs by Western blot analysis; assay type: cell-based
[28] = molecular target: T4, Histone-arginine methyltransferase CARM1; experiment: Inhibition of PRMT4 in human MDA-MB-231 cells assessed as decrease in PABP1 methylation level incubated for 24 hrs by Western blot analysis; assay type: cell-based
[29] = molecular target: T7, Histone-arginine methyltransferase CARM1 (Homo sapiens); experiment: Inhibition of PRMT4 in human MDA-MB-231 cells assessed as decrease in PABP1 methylation level incubated for 24 to 48 hrs by Western blot analysis; assay type: cell-based; details: dose 0.01-20 µM, time 24-48 hrs
[30] = test system: MDA-MB-231; experiment: Inhibition of colony formation in human MDA-MB-231 cells at 10 uM incubated for 2 weeks by crystal violet staining based analysis relative to control; assay type: functional; details: MDA-MB-231, 336 h
[31] = molecular target: T7, Histone-arginine methyltransferase CARM1 (Homo sapiens); experiment: Inhibition of PRMT4 in human MDA-MB-231 cells assessed as inhibition of BAF155 methylation at 10 uM by Western blot analysis; assay type: cell-based; details: time 1-48 hrs

T6 sequence (Q96LA8 whole entry): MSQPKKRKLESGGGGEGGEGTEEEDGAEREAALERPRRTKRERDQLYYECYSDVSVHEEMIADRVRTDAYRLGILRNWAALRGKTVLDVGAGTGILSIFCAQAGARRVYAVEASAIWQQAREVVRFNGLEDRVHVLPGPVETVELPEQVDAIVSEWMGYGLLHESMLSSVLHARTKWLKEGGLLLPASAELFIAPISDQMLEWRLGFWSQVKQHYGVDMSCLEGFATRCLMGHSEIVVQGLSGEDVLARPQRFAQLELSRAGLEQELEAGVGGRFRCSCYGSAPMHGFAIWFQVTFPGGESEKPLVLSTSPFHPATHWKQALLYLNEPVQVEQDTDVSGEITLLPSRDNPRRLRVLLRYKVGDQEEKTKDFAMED
T2 sequence (Q9NR22 whole entry): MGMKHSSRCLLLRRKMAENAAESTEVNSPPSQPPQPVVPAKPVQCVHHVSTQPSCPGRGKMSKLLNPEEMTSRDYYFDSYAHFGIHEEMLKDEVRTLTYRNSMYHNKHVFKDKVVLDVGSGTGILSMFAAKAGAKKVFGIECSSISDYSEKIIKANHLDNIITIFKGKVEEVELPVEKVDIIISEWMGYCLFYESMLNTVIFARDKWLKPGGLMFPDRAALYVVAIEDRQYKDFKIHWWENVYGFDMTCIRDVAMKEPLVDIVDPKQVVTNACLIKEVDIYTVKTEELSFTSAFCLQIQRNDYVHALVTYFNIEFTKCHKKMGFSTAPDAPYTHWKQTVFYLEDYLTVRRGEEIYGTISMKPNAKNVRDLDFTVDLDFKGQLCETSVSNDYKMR
T1 sequence (O60678 whole entry): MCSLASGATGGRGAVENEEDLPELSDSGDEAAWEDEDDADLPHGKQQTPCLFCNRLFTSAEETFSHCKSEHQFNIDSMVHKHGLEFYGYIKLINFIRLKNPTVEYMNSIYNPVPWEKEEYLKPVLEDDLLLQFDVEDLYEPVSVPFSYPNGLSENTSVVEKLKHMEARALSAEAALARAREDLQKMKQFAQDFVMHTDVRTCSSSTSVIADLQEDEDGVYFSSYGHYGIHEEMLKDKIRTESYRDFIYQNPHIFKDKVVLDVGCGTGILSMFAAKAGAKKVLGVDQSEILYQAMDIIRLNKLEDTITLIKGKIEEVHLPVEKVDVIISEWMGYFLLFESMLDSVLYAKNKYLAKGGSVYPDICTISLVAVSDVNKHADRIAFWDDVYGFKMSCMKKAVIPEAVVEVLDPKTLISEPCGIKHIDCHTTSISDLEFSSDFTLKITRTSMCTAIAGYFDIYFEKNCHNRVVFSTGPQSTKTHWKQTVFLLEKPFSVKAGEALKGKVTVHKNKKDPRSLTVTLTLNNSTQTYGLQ
T3 sequence (Q99873 whole entry): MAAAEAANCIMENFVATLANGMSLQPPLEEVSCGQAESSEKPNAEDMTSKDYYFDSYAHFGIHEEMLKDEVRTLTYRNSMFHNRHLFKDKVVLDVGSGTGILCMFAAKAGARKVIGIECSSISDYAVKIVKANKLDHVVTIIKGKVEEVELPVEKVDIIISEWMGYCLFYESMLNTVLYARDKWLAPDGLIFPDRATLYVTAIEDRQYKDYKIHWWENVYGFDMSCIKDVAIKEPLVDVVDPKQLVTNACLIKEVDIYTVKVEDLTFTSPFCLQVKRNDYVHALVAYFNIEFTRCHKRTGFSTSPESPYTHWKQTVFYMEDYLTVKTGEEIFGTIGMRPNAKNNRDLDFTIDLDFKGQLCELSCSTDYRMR
Sequence of Protein arginine N-methyltransferase 5 (O14744 whole entry): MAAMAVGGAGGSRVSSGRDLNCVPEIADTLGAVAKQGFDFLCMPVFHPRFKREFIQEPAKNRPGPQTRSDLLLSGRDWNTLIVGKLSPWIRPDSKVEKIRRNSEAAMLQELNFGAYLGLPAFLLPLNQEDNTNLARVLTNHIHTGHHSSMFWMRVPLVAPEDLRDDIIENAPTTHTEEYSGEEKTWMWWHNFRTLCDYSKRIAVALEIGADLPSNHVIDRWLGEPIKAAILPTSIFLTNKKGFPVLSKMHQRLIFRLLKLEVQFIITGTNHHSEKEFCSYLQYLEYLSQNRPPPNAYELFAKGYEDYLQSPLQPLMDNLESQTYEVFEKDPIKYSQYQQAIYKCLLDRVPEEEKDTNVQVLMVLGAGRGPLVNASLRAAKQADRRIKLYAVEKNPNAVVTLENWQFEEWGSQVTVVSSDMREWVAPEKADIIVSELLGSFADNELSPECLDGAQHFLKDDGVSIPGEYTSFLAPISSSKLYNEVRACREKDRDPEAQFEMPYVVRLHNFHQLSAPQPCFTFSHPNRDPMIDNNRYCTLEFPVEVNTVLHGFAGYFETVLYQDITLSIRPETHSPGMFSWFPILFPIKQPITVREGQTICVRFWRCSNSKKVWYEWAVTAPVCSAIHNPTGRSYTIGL
Sequence of PRMT5/MEP50 complex (O14744 whole entry): as above
Sequence of PRMT5/MEP50 complex (Q9BQA1 whole entry, further chain): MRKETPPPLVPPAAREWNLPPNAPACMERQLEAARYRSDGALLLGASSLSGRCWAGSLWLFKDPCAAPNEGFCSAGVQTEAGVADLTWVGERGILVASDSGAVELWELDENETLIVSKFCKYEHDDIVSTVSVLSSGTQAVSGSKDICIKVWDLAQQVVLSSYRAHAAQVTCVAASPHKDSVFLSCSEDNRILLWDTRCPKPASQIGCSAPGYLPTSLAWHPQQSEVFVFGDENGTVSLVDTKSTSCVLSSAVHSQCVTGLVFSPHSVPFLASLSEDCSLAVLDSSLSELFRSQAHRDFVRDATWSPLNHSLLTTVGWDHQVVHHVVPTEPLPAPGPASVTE

IC50 [1]: > 10 µM
IC50 [2]: > 10 µM
IC50 [3]: > 10 µM
IC50 [4]: > 10 µM
IC50 [5]: > 10 µM
IC50 [6]: > 10 µM
Compound: Nc1nc2cc(CC[C@H]3C[C@@H](n4ccc5c(N)ncnc54)[C@H](O)[C@@H]3O)ccc2cc1Br [ONAMETOSTAT]

IC50 [7]: 1.6 µM
IC50 [8]: < 0.0025 µM
IC50 [9]: 0.14 µM
IC50 [10]: 0.15 µM
IC50 [11]: 1.2 µM
IC50 [12]: 7 µM
IC50 [13]: 1.5 µM
Compound: Nc1ncnc2c1ncn2[C@@H]1O[C@H](CSCCCCNCc2cccc(-c3ccc(Cl)cc3)c2)[C@@H](O)[C@H]1O

IC50 [14]: 0.0182 µM
IC50 [1]: 0.321 µM
IC50 [2]: 0.0321 µM
IC50 [4]: 0.00505 µM
IC50 [5]: 0.555 µM
IC50 [6]: 0.0305 µM
Compound: N=C(NCCSC[C@H]1O[C@@H](n2cnc3c(N)ncnc32)[C@H](O)[C@@H]1O)Nc1ccccc1Br

remaining at 5 h, 5 µM [16]: 90.8%
inhibition [17]: Dose-Dependent Effect
fraction unbound at 5 h, 5 µM [18]: 0.004
Ratio IC50 [19]: 2
IC50 [20]: 0.0423 µM
IC50 [21]: 0.0231 µM
inhibition [24]: Dose-Dependent Effect
Drug metabolism [25]: Metabolite_Detected
Ratio IC50 [26]: 2
IC50 [27]: 0.343 µM
IC50 [28]: 0.0306 µM
inhibition [29]: Dose-Dependent Effect
inhibition [31]: Dose-Dependent Effect
Compound: CC1=C(C)C(=O)C(C(C)(C)CC(=O)N(CCSC[C@H]2O[C@@H](n3cnc4c(N)ncnc43)[C@H](O)[C@@H]2O)Cc2cccc(Br)c2)=C(C)C1=O
Activity [15]: Non-Toxic
inhibition [22]: Active
inhibition [23]: Active
inhibition at 10 µM [30]: 100%
